Activity calls are given as the source filed them.
Assays:
Streptococcus = assay: Group A Streptococcus viability loss, dose response, counter-screen for streptokinase expression inhibitor project, luminescence, BacTiterGlo (AID 1915); assay type: functional, organism-based;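 note: potency for reduction of bacterial viability or growth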
[1] = test system: Streptococcus sp. 'group A'; assay: growth inhibition of control SK(-) GAS strain, dose response, counter-screen for streptokinase expression inhibitor project, luminescence, kanamycin, BacTiterGlo, confirmation (AID 1900); assay type: functional, organism-based
Streptokinase A = target: T1, Streptokinase A (Streptococcus pyogenes serotype M1, UniProt P10520); assay: S. pyogenes streptokinase expression inhibitors, potency, dose response, plasminogen activation absorbance, OD405 (AID 1914); assay type: functional, Streptococcus pyogenes M1 GAS;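 note: secreted streptokinase activity via plasminogen activation per viability signal from cell pellet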
T1 sequence (P10520 whole entry): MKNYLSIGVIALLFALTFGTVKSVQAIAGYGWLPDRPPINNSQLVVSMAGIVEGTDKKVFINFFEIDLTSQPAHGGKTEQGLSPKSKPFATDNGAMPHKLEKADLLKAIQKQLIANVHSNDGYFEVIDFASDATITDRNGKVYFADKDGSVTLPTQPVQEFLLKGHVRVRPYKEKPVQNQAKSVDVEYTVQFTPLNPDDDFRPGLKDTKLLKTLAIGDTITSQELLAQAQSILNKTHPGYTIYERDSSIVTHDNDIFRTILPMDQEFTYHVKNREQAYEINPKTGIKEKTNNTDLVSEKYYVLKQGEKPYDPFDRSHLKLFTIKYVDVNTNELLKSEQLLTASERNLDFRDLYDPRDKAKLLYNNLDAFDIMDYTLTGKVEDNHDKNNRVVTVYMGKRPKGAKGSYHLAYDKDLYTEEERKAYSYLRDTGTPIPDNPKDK

Cytochrome P450 1A2 = target: T2, Cytochrome P450 1A2 (Homo sapiens, UniProt P05177);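 note: PubChem cytochrome P450 panel assay, CYP1A2 panel member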
T2 sequence (P05177 whole entry): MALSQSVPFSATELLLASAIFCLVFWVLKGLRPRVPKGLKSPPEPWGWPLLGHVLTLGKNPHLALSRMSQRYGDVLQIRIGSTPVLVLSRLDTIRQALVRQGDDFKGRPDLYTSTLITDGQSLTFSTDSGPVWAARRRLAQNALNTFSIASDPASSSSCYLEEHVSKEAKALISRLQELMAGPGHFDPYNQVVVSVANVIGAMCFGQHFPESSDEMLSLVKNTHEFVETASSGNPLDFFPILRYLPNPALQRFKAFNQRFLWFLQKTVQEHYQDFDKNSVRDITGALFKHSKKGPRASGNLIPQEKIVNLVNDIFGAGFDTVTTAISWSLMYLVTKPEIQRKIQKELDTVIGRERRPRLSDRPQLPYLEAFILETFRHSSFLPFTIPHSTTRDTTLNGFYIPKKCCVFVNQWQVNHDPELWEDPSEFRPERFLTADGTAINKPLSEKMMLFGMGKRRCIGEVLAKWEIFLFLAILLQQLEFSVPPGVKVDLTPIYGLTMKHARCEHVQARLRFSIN

[2] = target: T3, Heat shock factor protein 1 (Mus musculus, UniProt P38532); assay: HSF1 potentiators in luciferase reporter cells, confirmation, cell-based, NIH3T3, luminescence, dose retest (AID 435004); assay type: functional;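 note: stress induced by proteasome inhibitor MG132 added 30 min after compound; luciferase reporter driven by HSF1 response element in NIH3T3 cells; actives raise luminescence as potentiators of the MG132 stress response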
T3 sequence (P38532 whole entry): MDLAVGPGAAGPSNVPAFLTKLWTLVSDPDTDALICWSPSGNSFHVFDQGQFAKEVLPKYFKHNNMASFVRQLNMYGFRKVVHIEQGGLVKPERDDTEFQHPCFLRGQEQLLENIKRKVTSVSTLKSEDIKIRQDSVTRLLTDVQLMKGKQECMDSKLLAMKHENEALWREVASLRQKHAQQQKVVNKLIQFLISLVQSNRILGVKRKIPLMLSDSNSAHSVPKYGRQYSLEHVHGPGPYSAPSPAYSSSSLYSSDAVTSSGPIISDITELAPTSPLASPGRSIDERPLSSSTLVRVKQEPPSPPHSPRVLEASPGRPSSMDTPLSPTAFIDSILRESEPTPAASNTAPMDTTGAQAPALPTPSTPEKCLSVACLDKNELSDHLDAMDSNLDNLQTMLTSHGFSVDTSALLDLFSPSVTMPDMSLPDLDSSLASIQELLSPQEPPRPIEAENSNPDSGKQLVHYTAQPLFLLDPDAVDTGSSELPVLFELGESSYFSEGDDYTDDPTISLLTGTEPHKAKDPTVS

[3] = HEp-2 cell cytotoxicity, dose response, cytotoxicity control for RSV inhibitor project, HTS (AID 2410); assay type: functional; details: human respiratory syncytial virus
Cytochrome P450 2C9 = Cytochrome P450 2C9 (Homo sapiens, UniProt P11712)
Cytochrome P450 2C19 = Cytochrome P450 2C19 (Homo sapiens, UniProt P33261); assay: Cytochrome panel assay with activity outcomes. Panel member name: p450-cyp2c19 Compounds with AC50 equal or less than 10 uM are considered active; assay type: functional; details: read-out: AC50
[4] = Luminescence Cell-Based Dose Response HTS to Identify Inhibitors of 5'UTR Stem-Loop Driven Prion Protein mRNA Translation in H4 Neuroglioblastoma Cells. [Related pubchem assays: 1827 (Project Summary), 1813 (Primary HTS)]; assay type: functional
[5] = inhibitors of SNCA 5'UTR-driven reporter translation, confirmation, H4 neuroglioma cells, luminescence (AID 1988); assay type: functional, cell-based
H4 = assay: Luminescence Cell-Based Dose Response HTS to Identify Activators of 5'UTR Stem-Loop Driven Prion Protein mRNA Translation in H4 Neuroglioblastoma Cells. [Related pubchem assays: 1829 (Project Summary), 1814 (Primary HTS)]; assay type: functional; details: Homo sapiens
[6] = Luminescence Cell-Based Dose Response HTS to Identify Activators of Luciferase Translation or Activity in H4 […] Cells. [Related pubchem assays: 1829 (Project Summary), 1814 (Primary HTS)]; assay type: functional

Cytochrome P450 2C19, sequence (P33261 whole entry): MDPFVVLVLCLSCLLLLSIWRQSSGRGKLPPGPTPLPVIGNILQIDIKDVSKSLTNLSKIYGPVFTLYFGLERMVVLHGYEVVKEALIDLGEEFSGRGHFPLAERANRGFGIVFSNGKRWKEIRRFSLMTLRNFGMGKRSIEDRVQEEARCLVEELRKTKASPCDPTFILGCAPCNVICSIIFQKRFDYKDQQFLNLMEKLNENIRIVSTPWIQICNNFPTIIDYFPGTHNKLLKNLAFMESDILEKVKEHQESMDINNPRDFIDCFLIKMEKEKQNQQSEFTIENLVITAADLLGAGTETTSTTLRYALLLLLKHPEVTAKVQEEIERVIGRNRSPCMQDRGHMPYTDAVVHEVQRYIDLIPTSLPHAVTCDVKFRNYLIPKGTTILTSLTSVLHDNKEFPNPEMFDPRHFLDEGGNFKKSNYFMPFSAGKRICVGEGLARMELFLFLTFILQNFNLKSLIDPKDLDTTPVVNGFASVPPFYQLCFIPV
Cytochrome P450 2C9, sequence (P11712 whole entry): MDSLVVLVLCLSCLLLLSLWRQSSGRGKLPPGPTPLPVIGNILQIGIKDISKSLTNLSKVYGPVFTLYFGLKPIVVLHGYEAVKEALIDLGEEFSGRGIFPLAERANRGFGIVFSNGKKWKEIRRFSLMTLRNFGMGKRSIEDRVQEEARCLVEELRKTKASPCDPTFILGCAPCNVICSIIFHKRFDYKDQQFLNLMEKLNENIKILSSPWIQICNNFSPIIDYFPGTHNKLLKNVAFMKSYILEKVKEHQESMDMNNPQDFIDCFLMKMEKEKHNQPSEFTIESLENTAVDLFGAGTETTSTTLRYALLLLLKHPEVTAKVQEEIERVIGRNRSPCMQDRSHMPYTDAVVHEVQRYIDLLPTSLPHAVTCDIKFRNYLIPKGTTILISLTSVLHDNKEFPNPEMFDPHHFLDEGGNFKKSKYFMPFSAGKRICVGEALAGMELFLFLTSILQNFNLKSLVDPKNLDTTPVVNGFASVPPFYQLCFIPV

CC(=O)Nc1nnc(S(=O)(=O)N2CCN(c3ccc(Cl)cc3[N+](=O)[O-])CC2)s1
EC50 (Streptococcus): > 150 µM (not active) | EC50 [1]: 29.1 µM (active) | EC50 (Streptokinase A): > 150 µM (not active)

COc1ccc(-n2c(=O)c(-c3ccccc3)nc3cnc(N4CCOCC4)nc32)cc1
AC50 (Cytochrome P450 1A2): 15.8 µM (inconclusive)

CC(NC(=O)Cn1c(=O)[nH]c2ccsc2c1=O)C12CC3CC(CC(C3)C1)C2 (stereo unspecified)
EC50 (Streptococcus): > 150 µM (not active) | EC50 [1]: > 150 µM (not active) | EC50 (Streptokinase A): > 150 µM (not active)

CCc1nn(C(C)C(=O)NC(C)CCc2ccco2)c(=O)c2cc3occc3n12 (stereo unspecified)
EC50 [2]: > 260 µM (inactive) | CC50 [3]: > 50 µM (active)

Cc1ccc(S(=O)(=O)NCC(=O)OCC(=O)N2N=C(c3ccc(Cl)cc3)CC2c2ccco2)cc1C (stereo unspecified)
EC50 (Streptococcus): 61 µM (active) | EC50 [1]: 18.6 µM (active) | EC50 (Streptokinase A): 22.4 µM (active)

Cc1cc(NC(=O)c2cc(C)on2)n(-c2ccccc2)n1
EC50 [2]: > 260 µM (inactive)

CC[C@H](C)/C=C(C)/C=C/C(=O)Cc1cc(O)c(C)c(O)c1C=O
EC50 [2]: 27.5 µM (active)

O=C(Nc1ccc([N+](=O)[O-])cc1)C1C(c2ccccc2)=C1c1ccccc1
EC50 [2]: > 260 µM (inactive)

COC(=O)[C@@H]1CC[C@H](C)[C@@H](c2ccc(C)cc2)N1C(=O)c1ccc(/C=N\OCC[C@@H]2C=C[C@H](OC(C)=O)[C@H](COC(C)=O)O2)cc1
AC50 (Cytochrome P450 2C9): 3.98 µM (inconclusive)

COc1ccc(CN2CC(C(=O)NCCCN3CCOCC3)CC2=O)cc1 (stereo unspecified)
EC50 [2]: > 260 µM (inactive)

Cc1ccc(-n2c3c(c(=O)[nH]c2=O)C(C(F)(F)F)(C(F)(F)F)NC(=O)N3)cc1
AC50 (Cytochrome P450 2C9): 20 µM (inconclusive) | AC50 (Cytochrome P450 2C19): 39.8 µM (inconclusive)

COc1ccc(/C=C2\SC(=S)N(CCC(=O)NC3C=CS(=O)(=O)C3)C2=O)cc1 (stereo unspecified)
EC50 [4]: 15.7 µM (active) | EC50 [5]: 13.4 µM (active)

CCOc1nc(NCCc2ccc(OC)c(OC)c2)nc(NC(C)(C)CO)n1
AC50 (Cytochrome P450 2C9): 31.6 µM (inconclusive)

O=C(COc1cccc2cccnc12)Nc1ccccc1
EC50 (H4): 15 µM (active) | EC50 [6]: 15.4 µM (active)

O=C(CNC(=O)c1ccco1)NCc1nc2ccccc2[nH]1
EC50 (Streptococcus): > 150 µM (not active) | EC50 [1]: > 150 µM (not active) | EC50 (Streptokinase A): > 150 µM (not active)

CC(/C=C/c1ccc(N(C)C)cc1)=N/NC1=NC(=O)CC(C(=O)Nc2ccc(Cl)cc2)S1 (stereo unspecified)
EC50 (Streptococcus): 8.65 µM (active) | EC50 [1]: 2.94 µM (active) | EC50 (Streptokinase A): > 150 µM (not active)

COc1cc(/C=C/C(=O)N2CCOCC2)ccc1OCc1ccccc1
EC50 [2]: > 260 µM (inactive)

O=C(Nc1cccc(F)c1)N1CCC2(CC1)CCN(C(=O)Oc1ccccc1)CC2
AC50 (Cytochrome P450 2C9): 39.8 µM (inconclusive)

O=C(/C=C/c1ccccc1)NC(=S)NNC(=O)Cc1cccs1
EC50 (Streptococcus): 30.3 µM (active) | EC50 [1]: 1.39 µM (active) | EC50 (Streptokinase A): > 150 µM (not active)

O=C(Nc1cccnc1)C1COc2ccccc2O1 (stereo unspecified)
AC50 (Cytochrome P450 2C9): 5.01 µM (inconclusive)

CCOc1ccc(C(C)=O)cc1N1C(=O)C2C(C1=O)C1C=CC2C12CC2 (stereo unspecified)
AC50 (Cytochrome P450 2C9): 14.1 µM (inconclusive) | AC50 (Cytochrome P450 2C19): 17.8 µM (inconclusive)

Cn1c(-c2ccc(Br)cc2)cnc1NCc1cccnc1
AC50 (Cytochrome P450 2C9): 15.8 µM (inconclusive) | AC50 (Cytochrome P450 2C19): 17.8 µM (inconclusive)

Cn1c(-c2ccc(F)cc2)cnc1NCc1cccc(F)c1
AC50 (Cytochrome P450 2C9): 39.8 µM (inconclusive)
